Measured values: US12227498B2, “Heterocyclic amine derivative and pharmaceutical composition comprising same” (Daewoong Pharmaceutical Co., Ltd., priority 2018, dated 2025)

Key:
BTK = target: T1, BTK (Homo sapiens, UniProt Q06187); experiment: Inhibitory activity against BTK, ADP-Glo + BTK Kinase enzyme system kit (Promega); type: biochemical; conditions: BTK enzyme 1 ng/μl; ATP 10 µM; 15 min preincubation at room temperature; 1 hour at 30° C.; luminescence; duplicate
T1 construct: purchased Promega Corporation
Experimental: (§1) Inhibitory activities against BTK and ITK were measured for the compounds prepared in the above Examples as follows.
The inhibitory activities against BTK were evaluated using ‘ADP-Glo™+BTK Kinase enzyme system’ kit (Promega Corporation). […] 5 μl of substrate and 5 μl of ATP prepared so as to have a final concentration of 10 µM were added to the plate on which reactions were completed, and then allowed to react at 30° C. for 1 hour. All wells of the plate were treated with 25 μl of ADP-Glo™ reagent and allowed to react at 30° C. for 40 minutes. After that, all wells were treated with 50 μl of kinase detection buffer, and then reacted at 30° C. for 30 minutes under light shielding conditions. For the plate on which all reactions were completed, luminescence was measured and the results were calculated. Evaluation was carried out in duplicate, and negative control and positive control were calculated depending on whether or not the enzyme was added without treatment of the compound. The IC50 was calculated based on the calculated values.

ITK = target: T2, ITK (Homo sapiens, UniProt Q08881); experiment: Inhibitory activity against ITK, ADP-Glo + ITK Kinase enzyme system kit (Promega); type: biochemical; conditions: ITK enzyme 0.4 ng/μl; 15 min preincubation at room temperature; 1 hour at 30° C.; luminescence; duplicate
T2 construct: purchased Promega Corporation
T2 sequence (Q08881 1-620): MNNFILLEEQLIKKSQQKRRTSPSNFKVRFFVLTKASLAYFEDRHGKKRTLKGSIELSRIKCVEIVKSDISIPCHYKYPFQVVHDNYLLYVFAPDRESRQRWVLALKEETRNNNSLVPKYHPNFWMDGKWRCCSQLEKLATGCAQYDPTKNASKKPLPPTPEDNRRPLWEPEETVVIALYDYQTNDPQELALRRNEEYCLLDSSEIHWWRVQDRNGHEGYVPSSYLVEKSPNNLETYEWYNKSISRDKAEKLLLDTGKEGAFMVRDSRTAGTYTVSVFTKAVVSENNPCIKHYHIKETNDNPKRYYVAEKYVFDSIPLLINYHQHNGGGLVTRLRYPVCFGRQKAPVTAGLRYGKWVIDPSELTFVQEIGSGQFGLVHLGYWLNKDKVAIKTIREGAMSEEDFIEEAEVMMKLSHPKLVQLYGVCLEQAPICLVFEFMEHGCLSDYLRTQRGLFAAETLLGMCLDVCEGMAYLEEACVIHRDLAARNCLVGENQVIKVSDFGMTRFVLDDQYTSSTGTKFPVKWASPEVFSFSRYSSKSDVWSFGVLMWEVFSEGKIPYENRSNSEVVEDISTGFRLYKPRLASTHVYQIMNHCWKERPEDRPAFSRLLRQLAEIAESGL
Experimental: as §1
The inhibitory activity against ITK was evaluated using ‘ADP-Glo™+ITK Kinase enzyme system’ kit (Promega Corporation). […] To the plate on which reactions were completed, 5 μl of substrate and 5 μl of ATP prepared so as to have a final concentration of […] were added and then allowed to react at 30° C. for 1 hour. All wells of the plate were treated with 25 μl of ADP-Glo™ reagent and then allowed to react at 30° C. for 40 minutes. After that, all wells were treated with 50 μl of kinase detection buffer, and then allowed to react at 30° C. for 30 minutes under light shielding conditions. For the plate on which all reactions were completed, luminescence was measured and the results were calculated. Evaluation was carried out in duplicate, and negative control and positive control were calculated depending on whether or not the enzyme was added without treatment of the compound. The IC50 was calculated based on the calculated values.

T1 sequence (Q06187 whole entry): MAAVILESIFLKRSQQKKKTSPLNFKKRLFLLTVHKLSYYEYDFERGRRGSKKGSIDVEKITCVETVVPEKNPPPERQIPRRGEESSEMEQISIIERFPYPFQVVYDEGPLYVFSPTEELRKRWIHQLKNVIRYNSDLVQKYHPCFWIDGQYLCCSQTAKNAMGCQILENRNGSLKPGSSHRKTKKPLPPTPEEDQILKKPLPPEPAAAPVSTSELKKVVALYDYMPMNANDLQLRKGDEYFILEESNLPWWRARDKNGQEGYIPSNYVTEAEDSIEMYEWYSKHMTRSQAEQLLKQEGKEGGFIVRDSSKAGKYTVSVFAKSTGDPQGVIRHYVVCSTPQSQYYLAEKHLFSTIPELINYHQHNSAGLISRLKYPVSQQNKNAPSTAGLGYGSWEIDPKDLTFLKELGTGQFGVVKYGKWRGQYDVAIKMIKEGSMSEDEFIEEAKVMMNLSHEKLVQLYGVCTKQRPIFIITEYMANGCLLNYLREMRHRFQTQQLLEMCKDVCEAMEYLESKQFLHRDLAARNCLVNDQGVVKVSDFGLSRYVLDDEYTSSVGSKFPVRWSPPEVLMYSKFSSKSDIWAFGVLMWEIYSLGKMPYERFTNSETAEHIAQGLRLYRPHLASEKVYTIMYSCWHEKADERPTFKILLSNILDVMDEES

Row | IC50 (BTK) | IC50 (ITK) | Compound
1 | ~1000 nM | ~1000 nM | C=CC(=O)N1CCC[C@H](Nc2cc(CN3CCOCC3)cc(Nc3cc[nH]n3)n2)C1 [Example 48, (S)-1-(3-(6-(1H-pyrazol-3-ylamino)-4-(morpholinomethyl)pyridin-2-ylamino)piperidin-1-yl) prop-2-en-1-one]
2 | 1.2 nM | 1 nM | C=CC(=O)N1CCC[C@H](Nc2cc(CN3CCN(CCOC)CC3)cc(Nc3ncc(C)s3)n2)C1 [Example 22]
3 | 5.2 nM | 31.8 nM | Cc1cnc(Nc2cc(CN3CCOCC3)cc(N[C@H]3CCCN(C(=O)/C=C/Cl)C3)n2)s1 [Example 46, (S,E)-3-chloro-1-(3-(6-(5-methylthiazol-2-ylamino)-4-(morpholinomethyl)pyridin-2-ylamino)piperidin-1-yl) prop-2-en-1-one]
4 | 3.6 nM | 3.5 nM | C=CC(=O)N1CC[C@H](Nc2cc(CN3CCOCC3)cc(Nc3ncc(C)s3)n2)C1 [Example 7, (S)-1-(3-((6-((5-methylthiazol-2-yl)amino)-4-(morpholinomethyl)pyridin-2-yl)amino)pyrrolidin-1-yl) prop-2-en-1-one]
5 | 6.1 nM | 9 nM | C=CC(=O)N1CCC[C@H](Nc2cc(CN3CCN(CCCN)CC3)cc(Nc3ncc(C)s3)n2)C1 [Example 47, (S)-1-(3-(4-((4-(3-aminopropyl)piperazin-1-yl)methyl)-6-(5-methylthiazol-2-vlamino)pyridin-2-vlamino)piperidin-1-yl) prop-2-en-1-one]
6 | ~1000 nM | ~1000 nM | C=CC(=O)N1CCC[C@H](Nc2nc(Nc3ncc(C)s3)cc(CN3CCOCC3)c2F)C1 [Example 52, (S)-1-(3-(3-fluoro-6-(5-methylthiazol-2-ylamino)-4-(morpholinomethyl)pyridin-2-ylamino)piperidin-1-yl) prop-2-en-1-one]
7 | 0.4 nM | 1.6 nM | C=CC(=O)N1CCC[C@@H](Nc2cc(CN3CCOCC3)cc(Nc3ncc(C)s3)n2)C1 [Example 4, (R)-1-(3-((6-((5-methylthiazol-2-yl)amino)-4-(morpholinomethyl)pyridin-2-yl)amino)piperidin-1-yl) prop-2-en-1-one]
8 | 1.1 nM | 1.7 nM | C=CC(=O)N1CCC[C@H](Nc2cc(CN3CCN(CCC#N)CC3)cc(Nc3ncc(C)s3)n2)C1 [Example 34, (S)-3-(4-((2-((1-acryloylpiperidin-3-yl)amino)-6-((5-methylthiazol-2-yl)amino)pyridin-4-yl)methyl)piperazin-1-yl) propanenitrile]
9 | 5.2 nM | 50.5 nM | CC#CC(=O)N1CCC[C@H](Nc2cc(CN3CCOCC3)cc(Nc3ncc(C)s3)n2)C1 [Example 18, (S)-1-(3-((6-((5-methylthiazol-2-yl)amino)-4-(morpholinomethyl)pyridin-2-yl)amino)piperidin-1-yl) but-2-yn-1-one]
10 | 2.4 nM | > 40 nM | C=CC(=O)N1CCC(Oc2cc(CN3CCOCC3)cc(Nc3ncc(C)s3)n2)C1 (stereo not drawn) [Example 10, 1-(3-((6-((5-methylthiazol-2-yl)amino)-4-(morpholinomethyl)pyridin-2-yl)oxy)pyrrolidin-1-yl) prop-2-en-1-one]
11 | 30.8 nM | 91.6 nM | Cc1cnc(Nc2cc(CN3CCOCC3)cc(N[C@H]3CCCN(C(=O)CCCl)C3)n2)s1 [Example 45, (S)-3-chloro-1-(3-((6-((5-methylthiazol-2-yl)amino)-4-(morpholinomethyl)pyridin-2-yl)amino)piperidin-1-yl) propan-1-one]
12 | 67.1 nM | 47 nM | C=CC(=O)N1CC2(CC(Nc3cc(CN4CCOCC4)cc(Nc4ncc(C)s4)n3)C2)C1 [Example 30, 1-(6-((6-((5-methylthiazol-2-yl)amino)-4-(morpholinomethyl)pyridin-2-yl)amino)-2-azaspiro[3.3]heptan-2-yl) prop-2-en-1-one]
13 | 85.2 nM | 43.8 nM | C=CC(=O)NC1CCN(c2cc(CN3CCOCC3)cc(Nc3ncc(C)s3)n2)CC1 [Example 27, N-(1-(6-((5-methylthiazol-2-yl)amino)-4-(morpholinomethyl)pyridin-2-yl)piperidin-4-yl) acrylamide]
14 | 1.6 nM | 2.1 nM | C=CC(=O)N1CCC[C@H](Nc2cc(CN3CCN(C)CC3)cc(Nc3ncc(C)s3)n2)C1 [Example 43]
15 | 18.5 nM | 50.4 nM | CC#CC(=O)N1CCC2CCN(c3cc(CN4CCOCC4)cc(Nc4ncc(C)s4)n3)CC21 (stereo not drawn) [Example 29, 1-(6-(6-((5-methylthiazol-2-yl)amino)-4-(morpholinomethyl)pyridin-2-yl)octahydro-1H-pyrrolo[2,3-c]pyridin-1-yl) but-2-yn-1-one]
16 | 3 nM | 5.6 nM | C=CC(=O)N1CCC[C@H](Nc2cc(CN3CCN(CC)CC3)cc(Nc3ncc(C)s3)n2)C1 [Example 32]
17 | 8.8 nM | 31.7 nM | C=CC(=O)N1CCC2CCN(c3cc(CN4CCOCC4)cc(Nc4ncc(C)s4)n3)CC21 (stereo not drawn) [Example 28, 1-(6-(6-((5-methylthiazol-2-yl)amino)-4-(morpholinomethyl)pyridin-2-yl)octahydro-1H-pyrrolo[2,3-c]pyridin-1-yl) prop-2-en-1-one]
18 | > 1000 nM | ~1000 nM | Cc1cc(CN2CCOCC2)cc(Nc2ncc(C)s2)n1 [Example 44, 5-methyl-N-(6-methyl-4-(morpholinomethyl)pyridin-2-yl) thiazol-2-amine]
19 | 2 nM | 3 nM | C=CC(=O)N1CCC[C@H](Nc2cc(CN3CCOCC3)cc(Nc3ncc(C(F)(F)F)s3)n2)C1 [Example 49, (S)-1-(3-(4-(morpholinomethyl)-6-(5-(trifluoromethyl)thiazol-2-ylamino)pyridin-2-ylamino)piperidin-1-yl) prop-2-en-1-one]
20 | 1.1 nM | > 1000 nM | C=CC(=O)N1CCC[C@@H](Oc2cc(CN3CCOCC3)cc(Nc3ncc(C)s3)n2)C1 [Example 16, (R)-1-(3-((6-((5-methylthiazol-2-yl)amino)-4-(morpholinomethyl)pyridin-2-yl)oxy)piperidin-1-yl) prop-2-en-1-one]
21 | 8.8 nM | 15.6 nM | C=CC(=O)N1CCC[C@H](Nc2nc(CN3CCCCC3)cc(Nc3ncc(C)s3)n2)C1 [Example 31, (S)-1-(3-((4-((5-methylthiazol-2-yl)amino)-6-(piperidin-1-ylmethyl)pyrimidin-2-yl)amino)piperidin-1-yl) prop-2-en-1-one]
22 | 2.3 nM | 47.3 nM | C=CC(=O)N1CCC[C@H](Oc2cc(CN3CCOCC3)cc(Nc3ncc(C)s3)n2)C1 [Example 15, (S)-1-(3-((6-((5-methylthiazol-2-yl)amino)-4-(morpholinomethyl)pyridin-2-yl)oxy)piperidin-1-yl) prop-2-en-1-one]
23 | 3.1 nM | 2.6 nM | C=CC(=O)N1CCC(Nc2cc(CN3CCOCC3)cc(Nc3ncc(C)s3)n2)C1 (stereo not drawn) [Example 2, 1-(3-((6-((5-methylthiazol-2-yl)amino)-4-(morpholinomethyl)pyridin-2-yl)amino)pyrrolidin-1-yl) prop-2-en-1-one]
24 | 7.5 nM | 4.8 nM | C=CC(=O)N1CCC[C@H](Nc2cc(-c3ccccc3)cc(Nc3ncc(C)s3)n2)C1 [Example 39, (S)-1-(3-((6-((5-methylthiazol-2-yl)amino)-4-phenylpyridin-2-yl)amino)piperidin-1-yl) prop-2-en-1-one]
